# In article PMC8954547, “Nonpeptidic Z360-Analogs Tagged with Trivalent Radiometals as Anti-CCK2R Cancer Theranostic Agents: A Preclinical Study” (Pharmaceutics, 2022):
# Test system: SCID mice bearing twin HEK293-CCK2i4svR and wtHEK293 tumors
# Assay: Biodistribution in SCID mice bearing twin HEK293-CCK2i4svR and wtHEK293 xenografts
# Format: in vivo
# Outline: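 Uptake is expressed as %IA/g (mean ± SD, n = 4) from gamma counting of blood, organs and tumours collected at set times: 1, 4 and 24 h pi for ^67Ga, 4 and 24 h for ^111In (±gelofusine), 4–96 h for ^177Lu. Radioligands were given iv at 7–40 pmol to SCID mice bearing twin CCK2i4svR-transfected and wild-type HEK293 xenografts.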
smiles,measurement,setting,value
CC(C)(C)C(=O)CN1C(=O)[C@H](NC(=O)Nc2cccc(C(=O)NCCOCCOCCOCCNC(=O)[C@H](CCC(=O)O)NC(=O)CCC(C(=O)O)N3CCN(CC(=O)[O-])CCN(CC(=O)[O-])CCN(CC(=O)[O-])CC3)c2)CN(C2CCCCC2)c2ccccc21.[177Lu+3] (stereo in doubt) [[^177Lu]Lu-GAS3],Tumor to kidney ratio,96 pi,13.8
same,"Biodistribution, Blood",4 h pi,3.19 ± 0.44 %IA/g
same,"Biodistribution, CCK2i4svR(+) Tumor",4 h pi,20.88 ± 1.20 %IA/g
same,"Biodistribution, CCK2i4svR(-) Tumor",4 h pi,1.14 ± 0.50 %IA/g
same,"Biodistribution, Femur",4 h pi,0.60 ± 0.07 %IA/g
same,"Biodistribution, Heart",4 h pi,0.94 ± 0.21 %IA/g
same,"Biodistribution, Intestines",4 h pi,1.85 ± 0.18 %IA/g
same,"Biodistribution, Kidneys",4 h pi,8.86 ± 0.67 %IA/g
same,"Biodistribution, Liver",4 h pi,2.73 ± 0.31 %IA/g
same,"Biodistribution, Lungs",4 h pi,1.94 ± 0.21 %IA/g
same,"Biodistribution, Muscle",4 h pi,0.31 ± 0.04 %IA/g
same,"Biodistribution, Pancreas",4 h pi,1.00 ± 0.13 %IA/g
same,"Biodistribution, Spleen",4 h pi,1.19 ± 0.12 %IA/g
same,"Biodistribution, Stomach",4 h pi,0.64 ± 0.07 %IA/g
same,Tumor to kidney ratio,4 h pi,2.4
same,"Biodistribution, Blood",24 h pi,0.07 ± 0.01 %IA/g
same,"Biodistribution, CCK2i4svR(+) Tumor",24 h pi,5.38 ± 0.77 %IA/g
same,"Biodistribution, CCK2i4svR(-) Tumor",24 h pi,0.37 ± 0.12 %IA/g
same,"Biodistribution, Femur",24 h pi,0.11 ± 0.02 %IA/g
same,"Biodistribution, Heart",24 h pi,0.08 ± 0.02 %IA/g
same,"Biodistribution, Intestines",24 h pi,0.17 ± 0.04 %IA/g
same,"Biodistribution, Kidneys",24 h pi,1.42 ± 0.29 %IA/g
same,"Biodistribution, Liver",24 h pi,0.51 ± 0.05 %IA/g
same,"Biodistribution, Lungs",24 h pi,0.26 ± 0.02 %IA/g
same,"Biodistribution, Muscle",24 h pi,0.03 ± 0.01 %IA/g
same,"Biodistribution, Pancreas",24 h pi,0.07 ± 0.01 %IA/g
same,"Biodistribution, Spleen",24 h pi,0.45 ± 0.05 %IA/g
same,"Biodistribution, Stomach",24 h pi,0.11 ± 0.01 %IA/g
same,Tumor to kidney ratio,24 h pi,3.8
same,"Biodistribution, Blood",48 h pi,0.05 ± 0.01 %IA/g
same,"Biodistribution, CCK2i4svR(+) Tumor",48 h pi,3.39 ± 0.23 %IA/g
same,"Biodistribution, CCK2i4svR(-) Tumor",48 h pi,0.25 ± 0.14 %IA/g
same,"Biodistribution, Femur",48 h pi,0.14 ± 0.04 %IA/g
same,"Biodistribution, Heart",48 h pi,0.08 ± 0.01 %IA/g
same,"Biodistribution, Intestines",48 h pi,0.07 ± 0.01 %IA/g
same,"Biodistribution, Kidneys",48 h pi,0.47 ± 0.07 %IA/g
same,"Biodistribution, Liver",48 h pi,0.35 ± 0.09 %IA/g
same,"Biodistribution, Lungs",48 h pi,0.18 ± 0.03 %IA/g
same,"Biodistribution, Muscle",48 h pi,0.04 ± 0.01 %IA/g
same,"Biodistribution, Pancreas",48 h pi,0.08 ± 0.04 %IA/g
same,"Biodistribution, Spleen",48 h pi,0.43 ± 0.10 %IA/g
same,"Biodistribution, Stomach",48 h pi,0.08 ± 0.01 %IA/g
same,"Biodistribution, Blood",72 h pi,0.04 ± 0.00 %IA/g
same,"Biodistribution, CCK2i4svR(+) Tumor",72 h pi,1.99 ± 0.31 %IA/g
same,"Biodistribution, CCK2i4svR(-) Tumor",72 h pi,0.13 ± 0.03 %IA/g
same,"Biodistribution, Femur",72 h pi,0.06 ± 0.00 %IA/g
same,"Biodistribution, Heart",72 h pi,0.04 ± 0.01 %IA/g
same,"Biodistribution, Intestines",72 h pi,0.04 ± 0.01 %IA/g
same,"Biodistribution, Kidneys",72 h pi,0.17 ± 0.04 %IA/g
same,"Biodistribution, Liver",72 h pi,0.32 ± 0.02 %IA/g
same,"Biodistribution, Lungs",72 h pi,0.15 ± 0.01 %IA/g
same,"Biodistribution, Muscle",72 h pi,0.03 ± 0.01 %IA/g
same,"Biodistribution, Pancreas",72 h pi,0.03 ± 0.01 %IA/g
same,"Biodistribution, Spleen",72 h pi,0.44 ± 0.07 %IA/g
same,"Biodistribution, Stomach",72 h pi,0.06 ± 0.02 %IA/g
same,"Biodistribution, Blood",96 h pi,0.04 ± 0.00 %IA/g
same,"Biodistribution, CCK2i4svR(+) Tumor",96 h pi,1.52 ± 0.43 %IA/g
same,"Biodistribution, CCK2i4svR(-) Tumor",96 h pi,0.00 ± 0.04 %IA/g
same,"Biodistribution, Femur",96 h pi,0.06 ± 0.00 %IA/g
same,"Biodistribution, Heart",96 h pi,0.03 ± 0.01 %IA/g
same,"Biodistribution, Intestines",96 h pi,0.03 ± 0.01 %IA/g
same,"Biodistribution, Kidneys",96 h pi,0.11 ± 0.03 %IA/g
same,"Biodistribution, Liver",96 h pi,0.25 ± 0.02 %IA/g
same,"Biodistribution, Lungs",96 h pi,0.14 ± 0.01 %IA/g
same,"Biodistribution, Muscle",96 h pi,0.01 ± 0.00 %IA/g
same,"Biodistribution, Pancreas",96 h pi,0.02 ± 0.00 %IA/g
same,"Biodistribution, Spleen",96 h pi,0.39 ± 0.02 %IA/g
same,"Biodistribution, Stomach",96 h pi,0.04 ± 0.00 %IA/g
same,Background clearance / excretion route,"mouse, in vivo",rapid background clearance predominantly via the kidneys
